Three molecules from PMC11845477, “Exploring the principles behind antibiotics with limited resistance” (Nature Communications, 2025) can be followed below.

Where two headings read alike, the source gives them in different places. Where a SMILES comes first, the peptide text is derived from it. Bridges are numbered along the chain shown (N, C = ends). [ ]: non-standard residue; d: D form. The star is where a group is joined. X1 = NC[C@@H](CC(=O)*)c1cccc(Cl)c1; Dab = NCC[C@H](N)C(=O)O; Dap = NC[C@H](N)C(=O)O

The test system of one assay is E. coli BW25113-ΔacrB. Kind of assay: AcrAB-TolC efflux deficiency screen, relative MIC. The format is cell-based, Escherichia coli. The following applies: ΔacrB vs wild-type. On the procedure:
(§1) Fig. 6 The impact of AcrAB-TolC activity on antibiotic susceptibility. E. coli strains with AcrAB-TolC depletion (BW25113-ΔacrB) and overexpression (BW25113: pUCacrAB) were treated with various antibiotics, and the level of resistance was determined as minimum inhibitory concentration (MIC) relative to a wild-type strain, presented on a logarithmic scale (log2). Each bar represents the mean resistance level (susceptibility, i.e., level of resistance < 0; and resistance, i.e., level of resistance > 0) to antibiotics induced by acrAB overexpression (blue bars; E. coli with a multicopy plasmid of the acrAB genes (pUCacrAB)) and acrB deletion (red bars; mutant E. coli with acrB gene deletion (ΔacrB)) compared to the wild-type. Data are presented as mean values of 3 biological replicates ± SD. […] Detailed information on antibiotic and bacterial strain abbreviations is provided in Supplementary Data 1. Source data are provided as a Source Data file. For information on mode of action groups, refer to Table 1.
(§2) For the efflux deficiency screen, the ΔacrB mutant of E. coli K12 BW25113[86] and its equivalent wild-type control strain with intact gene were utilized. In contrast, BW25113 carrying a multicopy acrAB plasmid (pUCacrAB)[87] and its control strain harboring an empty pUC118 plasmid were used to overexpress the acrAB efflux system. According to established protocols via P1 transduction, the suitable acrB deletion mutant (ΔacrB BW25113) was created, while the pUCacrAB plasmid was kindly provided by Kunihiko Nishino and Akihito Yamaguchi (Osaka University, Osaka, Japan). In a prior study, both strains were employed. Since the copy number of the plasmid carrying the efflux pump is controlled by native promoters, external induction is unnecessary.
(§3) Antibiotic susceptibilities of these strains were evaluated using a modified version of the standard broth dilution method. In 96-well microtiter plates containing fresh MHB medium, or supplemented MS medium in case of SCH79797, ten-step serial dilutions of an antibiotic from a stock solution were made (2 wells per antibiotic concentration per strain). The two wells contained only supplemented media without any antibiotics […]. Strains were incubated overnight at 37 °C with continuous agitation. Additionally, plasmid containing strains were grown in the presence of 100 µg/mL ampicillin. The culture was diluted to yield a cell suspension with 5 ×10^5 cells/mL and then inoculated into the wells of the microtiter plate. To determine the medium’s background OD value, the first column of the 96-well plate contained solely MHB without inoculum. Prior to the measurement, the plates were incubated at 37 °C with continuous shaking at 900 rpm with 3 mm throw. OD600 values were determined in a microplate reader after 18 hours of incubation (Biotek Synergy 2). The minimum inhibitory concentration (MIC) was determined as the lowest concentration of antibiotic at which the OD600 values were less than 0.05 after subtracting the background value. The log2 of the relative MIC was computed using the following equation:2 log2relativeMICpUCacrAB=MICpUCacrAB/MICpUC118 3 log2relativeMICΔacrB=MICΔacrB/MICwt

Assay [1] has as its system K. pneumoniae ATCC 10031 (SEN) and K. pneumoniae ATCC 700603 (MDR). As to the kind of experiment: Frequency-of-resistance (FoR) assay, relative MIC of mutants. The following applies: for MIC: Klebsiella pneumoniae, read-out: MIC of evolved line, Klebsiella pneumoniae ATCC 10031 (KP-SEN). The class given is cell-based, Klebsiella pneumoniae. On the procedure: The susceptibility of antibiotics to resistance development was evaluated in two strains of each bacterial species: a multidrug-resistant strain and an antibiotic-sensitive strain of Escherichia coli, Klebsiella pneumoniae, Acinetobacter baumannii, and Pseudomonas aeruginosa. To explore first-step resistance, we previously used a standard protocol for spontaneous frequency-of-resistance analysis (FoR assay) at multiple concentrations of each antibiotic[10],[28],[31]–[33]. […] For all other combinations, approximately 10^10 bacterial cells were exposed to one of each antibiotic on agar plates for two days at concentrations where the given strain is susceptible. We examined resistance levels by contrasting the minimum inhibitory concentration (MICs) of the mutated strains to the original wild-type bacterial strain (i.e., relative MIC).
To estimate the frequency of spontaneous mutations that confer resistance in a microbial population, we conducted a frequency of resistance (FoR) assay following established protocols[10],[31]–[33]. […] Prior to plating, bacteria were grown overnight in MHB medium at 37 °C and 250 RPM, then centrifuged and washed in MHB. All experiments were performed in triplicate, and plates were incubated at 37 °C for 48 hours. Total colony-forming units (CFUs) were determined by plating appropriate dilutions onto antibiotic-free MHB agar. Resistance frequencies were calculated by dividing the number of resistant colonies by the initial viable cell count. From the plates with the highest antibiotic concentration, ten colonies were selected for MIC determination and whole-genome sequencing.
A robotic liquid handling system was used to automatically prepare a 11 to 16-step serial dilution in 384-well microtiter plates (Greiner). A final concentration of 5 × 10^5 bacterial cells per mL were inoculated into each well containing 60 µL MHB medium. Bacterial cultures were incubated at 37 °C with continuous shaking (Infors shaker, 900 rpm with 3 mm throw) for 18 hours (2 replicates from each). Cell growth was monitored by measuring the optical density (OD600 values, using Biotek Synergy microplate reader). MIC was defined as the antibiotic concentration of complete growth inhibition (i.e., OD600 < 0.05). Relative MIC was calculated as follows:1 relativeMIC=MICevolved/MICancestor […]
Supplementary Figure 3. Resistance levels following the frequency of resistance assay across bacterial strains. The level of resistance was measured as the fold change in relative MIC between evolved and ancestral strains. Data are grouped by bacterial strain (A. baumannii (AB), E. coli (EC), K. pneumoniae (KP), and P. aeruginosa (PA)) and categorized as either multidrug-resistant (MDR) or sensitive (SEN). Each data point represents a laboratory evolved line, and boxplots show the median, first and third quartiles, with whiskers indicating the 5th and 95th percentiles. […]
analysis was performed using two-sided Dunn’s post-hoc test with Benjamini-Hochberg correction for multiple comparisons (**/ * indicates p < 0.01/ 0.05). For detailed information on antibiotic and bacterial species, see Supplementary Table 1. For mode of action groups, refer to Table 1. Source data are provided as a Source Data file.

The subject of assay [2] is E. coli BW25113: pUCacrAB. Kind of assay: AcrAB-TolC efflux overexpression screen, relative MIC. The format is cell-based, Escherichia coli. To be noted: pUCacrAB vs empty pUC118 control. On the procedure:
as §1, §2, §3

Where [3] appears, read: Klebsiella pneumoniae ATCC 10031 (KP-SEN), evolved line 1.
Setting [4] is: Klebsiella pneumoniae ATCC 10031 (KP-SEN), evolved line 2.
Setting [5] is: Klebsiella pneumoniae ATCC 10031 (KP-SEN), evolved line 3.
The mark [6] stands for this setting: Klebsiella pneumoniae ATCC 10031 (KP-SEN), evolved line 1 versus ancestor.
The mark [7] stands for this setting: Klebsiella pneumoniae ATCC 10031 (KP-SEN), evolved line 2 versus ancestor.
Where [8] appears, read: Klebsiella pneumoniae ATCC 10031 (KP-SEN), evolved line 3 versus ancestor.
The mark [9] stands for this setting: Klebsiella pneumoniae ATCC 700603 (KP-MDR), evolved line 1.
Where [10] appears, read: Klebsiella pneumoniae ATCC 700603 (KP-MDR), evolved line 2.
[11] abbreviates: Klebsiella pneumoniae ATCC 700603 (KP-MDR), evolved line 3.
Where [12] appears, read: Klebsiella pneumoniae ATCC 700603 (KP-MDR), evolved line 1 versus ancestor.
Where [13] appears, read: Klebsiella pneumoniae ATCC 700603 (KP-MDR), evolved line 2 versus ancestor.
Where [14] appears, read: Klebsiella pneumoniae ATCC 700603 (KP-MDR), evolved line 3 versus ancestor.

As to `CC(C)C[C@@H]1NC(=O)[C@@H](Cc2ccccc2)NC(=O)[C@H](CCN)NC(=O)[C@@H](NC(=O)[C@H](CN)NC(=O)[C@@H](NC(=O)C[C@H](CN)c2cccc(Cl)c2)[C@@H](C)O)CCNC(=O)[C@H]([C@@H](C)O)NC(=O)[C@H](CCN)NC(=O)[C@H](CCN)NC1=O` [SPR206] (X1-T[Dap][Dab][Dab][dF]L[Dab][Dab]T; lactam 3-C (inferred); N-terminus assumed), the “Relative MIC (log2)” value (in the assay with E. coli BW25113-ΔacrB (replicate 1); with E. coli BW25113-ΔacrB (replicate 2); in the assay on E. coli BW25113-ΔacrB (replicate 3); in assay [2] (replicate 1); in assay [2] (replicate 2); in assay [2] (replicate 3)) was 0 in each case. In addition, the “Relative MIC” value in assay [1] (FoR assay, Klebsiella pneumoniae ATCC 10031 (KP-SEN), evolved line 1) came to 64; in assay [1] (FoR assay, Klebsiella pneumoniae ATCC 10031 (KP-SEN), evolved line 2), 1; in assay [1] (FoR assay, Klebsiella pneumoniae ATCC 10031 (KP-SEN), evolved line 3), 256; in assay [1] (FoR assay, Klebsiella pneumoniae ATCC 700603 (KP-MDR), evolved line 1), 64; in assay [1] (FoR assay, Klebsiella pneumoniae ATCC 700603 (KP-MDR), evolved line 2), 64; in assay [1] (FoR assay, Klebsiella pneumoniae ATCC 700603 (KP-MDR), evolved line 3), 64. Moreover, the “Relative MIC” value in assay [1] (setting [6]) came to 64; in assay [1] (setting [7]), 1; in assay [1] (setting [8]), 256; in assay [1] (setting [12]), 64; in assay [1] (setting [13]) it was 64; in assay [1] (setting [14]), 64. In addition, the MIC of evolved line in assay [1] (setting [3]) was 32 µg/mL; in assay [1] (setting [4]) it was 0.25 µg/mL; in assay [1] (setting [5]), 128 µg/mL; in assay [1] (setting [9]) it was 32 µg/mL; in assay [1] (setting [10]) it was 32 µg/mL; in assay [1] (setting [11]), 32 µg/mL.

Regarding `C[C@@H](O)[C@H]1C(=O)N2C(C(=O)O)=C(S[C@H]3CC[S@@+]([O-])C3)S[C@H]12` [Sulopenem], the “Relative MIC (log2)” value in the assay with E. coli BW25113-ΔacrB (replicate 1) stood at 0.585; with E. coli BW25113-ΔacrB (replicate 2), 0.585; in the assay on E. coli BW25113-ΔacrB (replicate 3), 0.585; in assay [2] (replicate 1) it was 0; in assay [2] (replicate 2) it was 0; in assay [2] (replicate 3), 0. Besides, the MIC of evolved line in assay [1] (setting [3]) is 0.0312 µg/mL; in assay [1] (setting [4]), 0.0312 µg/mL; in assay [1] (setting [5]), 0.0312 µg/mL; in assay [1] (setting [9]), 4 µg/mL; in assay [1] (setting [10]), 4 µg/mL; in assay [1] (setting [11]), 8 µg/mL. Further, the “Relative MIC” value in assay [1] (setting [6]) is recorded as 1; in assay [1] (setting [7]), 1; in assay [1] (setting [8]), 1; in assay [1] (setting [12]), 8; in assay [1] (setting [13]), 8; in assay [1] (setting [14]), 16.

With `C[C@@H]1CN2c3c(cc4c(N5C(=O)OC[C@@H]5C)noc4c3F)CC3(C(=O)NC(=O)NC3=O)[C@H]2[C@H](C)O1` [Zoliflodacin], the “Relative MIC (log2)” value with E. coli BW25113-ΔacrB (replicate 1) is reported as -4; with E. coli BW25113-ΔacrB (replicate 2), -4; in the assay with E. coli BW25113-ΔacrB (replicate 3) it was -4; in assay [2] (replicate 1), 2; in assay [2] (replicate 2) it was 2; in assay [2] (replicate 3), 2. Moreover, the figures for the “Relative MIC” value in assay [1] (setting [6]), in assay [1] (setting [7]) and in assay [1] (setting [8]) were 32, 128 and 128, respectively. For the same molecule, the results for the MIC in assay [1] (evolved line 1), in assay [1] (evolved line 2) and in assay [1] (evolved line 3) were 4 µg/mL, 16 µg/mL and 16 µg/mL, respectively.

The MIC is the least concentration at which growth counts as inhibited.
